*1 amine or outer side, *2 acyl side, *3 side chain or, on linkers, in order; H or OH if unused. Where a SMILES comes first, the peptide text is derived from it. Bridges are numbered along the chain shown (N, C = ends). Roman numbers before positions name the chains, in order. [ ]: non-standard residue; d: D form. Actinocin(9to1) = Cc1c2oc3c(C)ccc(C(=O)[*:1])c3nc-2c(C(=O)[*:2])c(N)c1=O; NMeV = CN[C@H](C(=O)O)C(C)C; Sar = CNCC(=O)O
Assay: in vivo
Conditions: female, mouse, plasma, iv, 0.5 mg/kg; for level at 6 h / level at 22 h: NSG (NOD.Cg-Prkdc^scid Il2rg^tm1Wjl/SzJ), plasma actinomycin D concentration, incurred sample reanalysis table
Method: The experiments were carried out in accordance with the European regulations for care and use of laboratory animals (2010/63/EU) under the German license number G-187/18 and the internal reference number DKFZ374, approved by the responsible regional council (Regierungspräsidium Karlsruhe, Germany). Female 8-week-old NSG mice (NOD.Cg-Prkdc^scid Il2rg^tm1Wjl/SzJ-NOD-SCID gamma-mice) with a weight of approximately 25 g were used for the studies. […] Mice received analgesia (metamizole) and anesthesia with isoflurane during surgery. […] Therefore, we chose to take blood samples 0.75, 6, and 22 h after intravenous bolus injection into the tail vein for the assay’s feasibility pharmacokinetic experiment. […] Full blood samples were transferred into citrate tubes (Sarstedt, Germany) and centrifuged at 1600× g for 10 min to generate plasma samples, which were stored at −80 °C until analysis. […] For validation of the UPLC-MS/MS quantification, blank plasma from 6 naïve mice was used and blank brain tissue was obtained from 2 unexposed mice.
For protein precipitation of plasma microsamples, an excess of ACN (50 µL) with 0.1% FA containing the IS was applied to an Impact® 96-well protein precipitation plate (Phenomenex, Torrance, CA, USA). Subsequently, 20 µL of the plasma samples were added and the plates sealed and shaken for 1 min. […] For protein depletion, samples were filtered into a 96-well collection plate (Waters, Milford, MA, USA) by applying positive pressure with a 96-well positive pressure unit (Waters, Milford, MA, USA) operated with air overpressure of 5 psi. After addition of 40 µL of water containing 0.1% FA, the collection plates were sealed, shaken, and extracts injected onto the UPLC system.

Cc1c2oc3c(C)ccc(C(=O)N[C@@H]4C(=O)N[C@H](C(C)C)C(=O)N5CCC[C@H]5C(=O)N(C)CC(=O)N(C)[C@@H](C(C)C)C(=O)O[C@@H]4C)c3nc-2c(C(=O)N[C@@H]2C(=O)N[C@H](C(C)C)C(=O)N3CCC[C@H]3C(=O)N(C)CC(=O)N(C)[C@@H](C(C)C)C(=O)O[C@@H]2C)c(N)c1=O [actinomycin D, Actinomycin D] (I: T[dV]P[Sar][NMeV] / II: T[dV]P[Sar][NMeV]; ester I:1-I:C, II:1-II:C; linker I:N-II:N via Actinocin(9to1))
level at 6 h (incurred reanalysis, mouse # 6, sampling 6 h): 1.17 ng/mL | level at 22 h (incurred reanalysis, mouse # 6, sampling 22 h): 1.16 ng/mL | level at 6 h (incurred reanalysis, mouse # 7, sampling 6 h): 5.23 ng/mL | level at 22 h (incurred reanalysis, mouse # 7, sampling 22 h): 5.17 ng/mL | level at 6 h (original analysis, mouse # 6, sampling 6 h): 1.31 ng/mL | level at 22 h (original analysis, mouse # 6, sampling 22 h): 1.36 ng/mL | level at 6 h (original analysis, mouse # 7, sampling 6 h): 5.51 ng/mL | level at 22 h (original analysis, mouse # 7, sampling 22 h): 4.48 ng/mL | AUC(0-inf) (NSG): 128 ± 31 ng·h/mL | Cmax (NSG): 15.8 ± 5.1 ng/mL | Vd (NSG): 1.1 ± 0.35 L | half-life (NSG): 6.04 ± 0.75 h
